Experiment [1] has as its system embryoid bodies from ES cells (E14 cells or B6 cells). As to the kind of experiment: Formation of heart (autonomically beating cardiac muscle-like cell aggregates) from embryoid bodies using RXR ligand. The format is cell-based, mouse. Also on record: frequency of appearance of autonomically beating cardiac muscle-like cell aggregates: dose or concentration left out as unconfirmed. As to the method: (§1) As ES cells, E 14 cells of the 29 mouse strain (ATCC #: CRL-1821) or B6 cells of the C57BL mouse strain (ATCC #: SCRC-1002) were used. Mouse fetal fibroblasts prepared from a mouse embryo on the 13th day were inoculated on a 0.1% gelatin-coated culture dish, and cultured in a medium containing 12% fetal bovine serum (Gibco), 100 U/ml penicillin (Sigma) and 100 μg/ml streptomycin (Sigma) for 24 hours. These cells were treated with 10 μg/ml mytomicin C (MMC, Sigma) for four hours to inhibit cell division and then washed twice with phosphate-buffered saline (PBS) to remove MMC. The ES cells were inoculated on these fibroblasts (feeder). As the medium for the ES cells, D-MEM (high glucose, Gibco) containing 15% fetal bovine serum for ES (Gibco), 2 mM L-glutamine (Gibco), MEM non-essential amino acid (Sigma), 1 mM sodium pyruvate (Gibco), 0.0007% β-mercaptoethanol (Sigma), 1000 U/ml Leukemia inhibiting factor (Chemicon), 100 U/ml penicillin (Sigma) and 100 μg/ml streptomycin (Sigma) was used, and the cells were cultured in a CO2 incubator (5% CO2, 100% humidity) at 37° C. The medium was exchanged every day.
(§2) Subculture was performed 72 hours after the inoculation of the ES cells. MMC-treated feeder cells (mouse fetus fibroblasts) were inoculated on a gelatin-coated culture dish, and after 24 hours, the ES cells completely dissociated by a treatment with 0.05% trypsin-0.02% EDTA were inoculated to allow formation of colonies (see, FIG. 1). The ES cells were cultured for three days after the inoculation to allow formation of colonies, and a colony was isolated by pipetting and then inoculated on a culture dish for bacteria with an extremely low cell attachment property. As the medium, D-MEM (high glucose) containing 15% Knockout SR (KSR, Gibco), 100 U/ml penicillin and 100 μg/ml streptomycin was used. The cells were further cultured for three days under this condition to prepare embryoid bodies (FIG. 2). […]

For experiment [2], the system named is animal cap cells (pluripotent cell aggregates) at the blastula stage. As to conditions: activin at a high concentration; cited from earlier work.
The subject of experiment [3] is embryoid bodies from ES cells. Kind of experiment: Formation of smooth muscle-like cells from embryoid bodies using RXR ligand. The format is cell-based, mouse. Conditions: 1×10^−5 to 2×10^−6 M PA024, then further cultured. On the procedure: as §1
Subculture was performed 72 hours after the inoculation of the ES cells. […]

Experiment [4] deals with embryoid bodies from ES cells. Kind of experiment: Formation of adipocytes from embryoid bodies using RXR ligand. The format is cell-based, mouse. Also on record: adipocytes formed in comparison with the control group (all-trans retinoic acid): dose or concentration left out as unconfirmed. On the procedure:
as §1, §2

As for `CC1=C(/C=C/C(C)=C/C=C/C(C)=C/C(=O)O)C(C)(C)CCC1` [all-trans retinoic acid], the “differentiation of cardiac muscle-like cells” value in experiment [1] (control group treated with 1×10^−5 M, over two weeks after the treatment) is recorded as “almost no differentiation”.

On to activin, for which the “formation rate of rhythmically beating heart” value in experiment [2] is 60%.

For the molecule `CC1(C)CCC(C)(C)c2cc(N(CC3CC3)c3ncc(C(=O)O)cn3)ccc21` [PA024, 2-[N-cyclopropylmethyl-N-(5,6,7,8-tetrahydro-5,5,8,8-tetramethylnaphthalen-2-yl)amino]pyrimidine-5-carboxylic acid], the “formation of cardiac muscle-like cell aggregates” value in experiment [1] (2×10−6 M PA024) is recorded as 0.5 cell aggregate per embryoid body. Also, the “frequency of appearance of autonomically beating cardiac muscle-like cell aggregates” value in experiment [1] (PA024, cultured for 2 days) was 0.2 cell aggregate per embryoid body. In experiment [3], the “time of formation of smooth muscle-like cells” value is “one to two”. The “time of appearance of adipocytes” value in experiment [4] (1×10^−5 to 2×10^−6 M PA024) is “about two”. For the same molecule, the “adipocyte formation in terms of the value per embryoid body” value in experiment [4] (1×10^−5 to 2×10^−6 M PA024, culture continued for 20 days) was about 100%. The “adipocytes formed in comparison with the control group (all-trans retinoic acid)” value in experiment [4] (PA024 treated group versus all-trans retinoic acid control) is on record as “two or three times more”.

These data come from US8105833B2, “Method for forming organ” (Research Foundation Itsuu Laboratory, priority 2003, dated 2012).
